The values that follow are results of earlier work, collected in article PMC5063953 (Biochemical Pharmacology, 2016).

Read-outs that look alike come from different tables or passages of the source. No end group written: not given here.

The test system of data set [1] is hCLR-RAMP3. Particulars: ref [60], cited from earlier work.
Data set [2] deals with hCLR-RAMP2. Particulars: ref [60], cited from earlier work.
In data set [3] the test system is hCLR-RAMP1. Particulars: cited from earlier work.
The subject of data set [4] is hCRF-1R. Particulars: ref [44], cited from earlier work.
For data set [5], the system named is rGCGR. Particulars: ref [52], cited from earlier work.
Data set [6] has as its system hGCGR. The following applies: ref [15], cited from earlier work.
The test system of data set [7] is SecR. The following applies: R2.46A; ref [17]; cited from earlier work.
Data set [8] relates to rSecR. The following applies: ref [14], cited from earlier work.
In data set [9] the test system is hSecR. The following applies: cited from earlier work.
In data set [10] the test system is hVPAC1R. Particulars: cited from earlier work.
The test system of data set [11] is hVPAC2R. The following applies: ref [35], cited from earlier work.
Data set [12] has as its system oPTH-1R. The following applies: ref [57], cited from earlier work.

For the molecule “adrenomedullin: agonist at CLR-RAMP2 or CLR-RAMP3 complexes (YRQSMNNFQGLRSFGCRFGTCTVQKLAHQIYQFTDKDKDNVAPRSKISPQGY; ends and bridges not checked; cysteine pairing not given here; UniProt P35318 95-146, looked up)”, the “Effect compared with WT: cAMP production” value in data set [1] (K3.30A) is “Reduced adrenomedullin cAMP production”; in [1] (R4.64A) it was “Reduced adrenomedullin mediated cAMP production”; in data set [2] (K3.30A), “Reduced adrenomedullin cAMP production”; in data set [2] (R4.64A) it was “Reduced adrenomedullin mediated cAMP production”. Further, the “function upon mutation of R4.64, in words” value in data set [1] (R4.64 mutated, [63]) is listed as “altered adrenomedullin function”; in [2] (R4.64 mutated, [63]) it was “altered adrenomedullin function”.

As for calcitonin gene related peptide [CGRP], the “Effect compared with WT: cAMP potency” value was “Reduced CGRP-mediated cAMP potency” in data set [3] (E7.63A, ref [59]) and “Reduced CGRP mediated cAMP potency” in [3] (R2.46A, ref [59]). The “Effect compared with WT: cAMP pEC50” value is reported as “Reduced CGRP-mediated cAMP pEC50” in data set [3] (H5.40A, ref [59]) and “Reduced CGRP mediated cAMP pEC50” in data set [3] (R4.64A, ref [59]). For the same molecule, the “Effect compared with WT: cAMP production” value in data set [3] (K3.30A, ref [59]) was “No effect on CGRP mediated cAMP production”; in data set [3] (K6.37A, ref [10]), “No effect on CGRP mediated cAMP production”; in data set [3] (N5.56A, ref [59]) it was “No effect on CGRP cAMP mediated production”. Also, in data set [3] (N2.52A, ref [59]), the “Effect compared with WT: affinity or cAMP production” value is “No effect on CGRP affinity or cAMP production”. Further, the “function upon mutation of R4.64, in words” value in data set [3] (R4.64 mutated, ref [60], [63]) was “not CGRP function”. Moreover, in [3] (R6.40A, ref [10]), the “reduction in affinity compared with WT” value is 5 fold. Besides, the “reduction in cAMP production compared with WT” value in data set [3] (R6.40A, ref [10]) is on record as 30 fold.

On to corticotropin-releasing factor [CRF], for which, in data set [4] (K6.37A), the “Effect compared with WT: cAMP potency (Gs)” value is given as “Increased CRF mediated cAMP potency (Gs)” and the “Effect compared with WT: pERK1/2 (Gi)” value was “reduced pERK1/2 (Gi)”.

Regarding “glucagon: peptide agonist of the glucagon receptor”, the “Effect compared with WT: potency in CRE reporter activity assay” value in data set [5] (E7.63A) is “Enhanced basal activity and enhanced potency in glucagon mediated CRE reporter activity assay”; in data set [5] (N7.61A), “Enhanced potency in glucagon mediated CRE reporter activity assay”. Further, the “Effect compared with WT: CRE reporter activity” value in [5] (R6.37A) is “Enhanced glucagon mediated CRE reporter activity (potency and Emax)”. Moreover, the “Effect compared with WT: affinity” value in [6] (K4.64L) is recorded as “Reduced glucagon affinity”. For the same molecule, the “Effect compared with WT: expression and affinity” value in data set [6] (R3.30A) is “Reduced expression and glucagon affinity”; in data set [6] (R5.40A) it was “Reduced expression and glucagon affinity”.

As to “secretin: agonist of the secretin receptor”, in [7], the “Effect compared with WT: cAMP potency” value is listed as “not cAMP potency” and the “Effect compared with WT: calcium potency” value is listed as “Decreased secretin mediated calcium potency”. Besides, the “Effect compared with WT: cAMP production” value in data set [8] (R3.30A) is “Reduced secretin-mediated cAMP production”. In addition, in data set [8] (R4.64A), the “Effect compared with WT: cAMP potency” value is listed as “Decreased secretin mediated cAMP potency”. Moreover, in [9] (R6.37A/K6.40A, ref [17]), the “Effect compared with WT: affinity or receptor expression” value is “no effect on affinity or receptor expression”; the “Effect compared with WT: cAMP and calcium” value was “Reduced secretin mediated cAMP and calcium”. The “Effect compared with WT: cAMP production” value in [9] (R6.37A, ref [8]) was “No effect on secretin mediated cAMP production”.

Consider “urocortin: agonist at hCRF-1R (DNPSLSIDLTFHLLRTLLELARTQSQRERAEQNRIIFDSV; ends and bridges not checked; UniProt P55089 83-122, looked up)”, for which, in data set [4] (K6.40A), the “Effect compared with WT: IP3 (Gq)” value is “reduced IP3 (Gq)” and the “Effect compared with WT: cAMP (Gs)” value is “Increased urocortin mediated cAMP (Gs)”.

Consider vasoactive intestinal polypeptide [VIP], for which the “Effect compared with WT: cAMP production” value is listed as “Decreased VIP mediated cAMP production” in data set [10] (E7.63A, ref [13]); “No effect on VIP mediated cAMP production” in [10] (R6.37A, ref [13]); “Reduced VIP mediated cAMP production” in data set [10] (Y3.53A, ref [55]). Further, the “Effect compared with WT: IP3 production” value in data set [10] (R6.40A, ref [36]) is “Reduced VIP mediated IP3 production”. In addition, the “Effect compared with WT: cAMP” value was “no effect on cAMP” in data set [10] (R6.40A, ref [36]) and “No effect on VIP mediated cAMP” in data set [10] (Y6.35A, ref [13]). The “Effect compared with WT: cAMP potency” value in [11] (R6.37A) and in data set [11] (R6.40A) was “Reduced VIP mediated cAMP potency” each time.

B1: parathyroid hormone (peptide, UniProt P01270 32-115, looked up)
Parathyroid hormone: SVSEIQLMHNLGKHLNSMERVEWLRKKLQDVHNFVALGAPLAPRDAGSQRPRKKEDNVLVESHEKSLGEADKADVNVLTKAKSQ
modifications: Parathyroid hormone
Turning to B1, the “Effect compared with WT: cAMP” value in data set [12] (E7.63 K) and in data set [12] (R4.64A) was “No effect on PTH mediated cAMP” each time. Also, the “Effect compared with WT: cAMP production” value in data set [12] (H2.52A) is listed as “No effect on PTH-1 cAMP production”.
